O=P(O)(c1ccccc1)c1ccccc1
solubility (mole fraction) (in 2-ethoxyethanol, 288.15 K): 0.00619
solubility (mole fraction) (in 2-ethoxyethanol, 293.18 K): 0.00716
solubility (mole fraction) (in 2-ethoxyethanol, 298.17 K): 0.0081
solubility (mole fraction) (in 2-ethoxyethanol, 303.04 K): 0.00924
solubility (mole fraction) (in 2-ethoxyethanol, 308.11 K): 0.0106
solubility (mole fraction) (in 2-ethoxyethanol, 313.15 K): 0.0118
solubility (mole fraction) (in 2-ethoxyethanol, 318.2 K): 0.0135
solubility (mole fraction) (in 2-ethoxyethanol, 323.16 K): 0.0151
solubility (mole fraction) (in 2-ethoxyethanol, 328.2 K): 0.0172
solubility (mole fraction) (in 2-ethoxyethanol, 332.96 K): 0.0196
solubility (mole fraction) (in 2-ethoxyethanol, 338.03 K): 0.0223
solubility (mole fraction) (in 2-ethoxyethanol, 343.24 K): 0.0252
solubility (mole fraction) (in 2-ethoxyethanol, 348.24 K): 0.0285
solubility (mole fraction) (in 2-ethoxyethanol, 353.25 K): 0.0321
solubility (mole fraction) (in 2-ethoxyethanol, 358.29 K): 0.036
solubility (mole fraction) (in 2-ethoxyethanol, 363.1 K): 0.0401
solubility (mole fraction) (in acetic acid, 293.23 K): 0.00426
solubility (mole fraction) (in acetic acid, 303.15 K): 0.00604
solubility (mole fraction) (in acetic acid, 313.03 K): 0.00827
solubility (mole fraction) (in acetic acid, 323.15 K): 0.0112
solubility (mole fraction) (in acetic acid, 333.21 K): 0.0151
solubility (mole fraction) (in acetic acid, 343.04 K): 0.0209
solubility (mole fraction) (in acetone, 293.25 K): 0.00051
solubility (mole fraction) (in acetone, 298.18 K): 0.00068
solubility (mole fraction) (in acetone, 303.12 K): 0.00091
solubility (mole fraction) (in acetone, 308.23 K): 0.0012
solubility (mole fraction) (in acetone, 313.19 K): 0.00156
solubility (mole fraction) (in acetone, 318.21 K): 0.00203
solubility (mole fraction) (in acetone, 323.24 K): 0.00244
solubility (mole fraction) (in benzene, 293.15 K): 0.0007
solubility (mole fraction) (in benzene, 303.19 K): 0.00112
solubility (mole fraction) (in benzene, 313.17 K): 0.00183
solubility (mole fraction) (in benzene, 322.95 K): 0.00291
solubility (mole fraction) (in benzene, 333.21 K): 0.00459
solubility (mole fraction) (in benzene, 343.12 K): 0.00706
solubility (mole fraction) (in ethanol, 283.15 K): 0.00575
solubility (mole fraction) (in ethanol, 288.15 K): 0.00671
solubility (mole fraction) (in ethanol, 293.1 K): 0.00774
solubility (mole fraction) (in ethanol, 298.07 K): 0.00889
solubility (mole fraction) (in ethanol, 303.07 K): 0.0102
solubility (mole fraction) (in ethanol, 308.15 K): 0.0117
solubility (mole fraction) (in ethanol, 313.16 K): 0.0134
solubility (mole fraction) (in ethanol, 318.16 K): 0.0152
solubility (mole fraction) (in ethanol, 322.84 K): 0.0173
solubility (mole fraction) (in ethanol, 327.94 K): 0.0198
solubility (mole fraction) (in ethanol, 333.1 K): 0.0231
solubility (mole fraction) (in ethanol, 337.97 K): 0.0264
solubility (mole fraction) (in ethanol, 342.9 K): 0.0302
solubility (mole fraction) (in ethyl acetate, 293.06 K): 0.00052
solubility (mole fraction) (in ethyl acetate, 298.15 K): 0.0006
solubility (mole fraction) (in ethyl acetate, 303.15 K): 0.00075
solubility (mole fraction) (in ethyl acetate, 308.17 K): 0.00098
solubility (mole fraction) (in ethyl acetate, 313.23 K): 0.00121
solubility (mole fraction) (in ethyl acetate, 318.04 K): 0.00144
solubility (mole fraction) (in ethyl acetate, 323.1 K): 0.00176
solubility (mole fraction) (in ethyl acetate, 328.13 K): 0.00208
solubility (mole fraction) (in ethyl acetate, 333.25 K): 0.00247
solubility (mole fraction) (in ethyl acetate, 337.95 K): 0.00318
solubility (mole fraction) (in isopropanol, 288.15 K): 0.00426
solubility (mole fraction) (in isopropanol, 293.15 K): 0.00503
solubility (mole fraction) (in isopropanol, 297.98 K): 0.00594
solubility (mole fraction) (in isopropanol, 303.09 K): 0.00696
solubility (mole fraction) (in isopropanol, 308.05 K): 0.00803
solubility (mole fraction) (in isopropanol, 313.15 K): 0.00931
solubility (mole fraction) (in isopropanol, 318.06 K): 0.0107
solubility (mole fraction) (in isopropanol, 323.08 K): 0.0123
solubility (mole fraction) (in isopropanol, 328.12 K): 0.0144
solubility (mole fraction) (in isopropanol, 332.97 K): 0.0165
solubility (mole fraction) (in isopropanol, 338.17 K): 0.0189
solubility (mole fraction) (in isopropanol, 342.94 K): 0.0223
solubility (mole fraction) (in isopropanol, 347.8 K): 0.0257
solubility (mole fraction) (in toluene, 293.15 K): 0.00049
solubility (mole fraction) (in toluene, 303.16 K): 0.00074
solubility (mole fraction) (in toluene, 313.18 K): 0.00107
solubility (mole fraction) (in toluene, 323.08 K): 0.00157
solubility (mole fraction) (in toluene, 333.17 K): 0.00232
solubility (mole fraction) (in toluene, 343.25 K): 0.00326
solubility (mole fraction) (in toluene, 352.95 K): 0.00462
solubility (mole fraction) (in toluene, 362.65 K): 0.00651
solubility (mole fraction) (in water, 303.14 K): 5e-05
solubility (mole fraction) (in water, 313.17 K): 8e-05
solubility (mole fraction) (in water, 323.13 K): 0.00011
solubility (mole fraction) (in water, 333 K): 0.00014
solubility (mole fraction) (in water, 343.05 K): 0.00018
solubility (mole fraction) (in water, 353.05 K): 0.00023

— BigSolDB 2.1
